This assay concerns Obese ZSF1-SU rats. The assay can be described thus: HFpEF induced PH rat model, obese ZSF1 rats challenged with semaxanib (Example 13). In kind it is in vivo. Particulars: 5 mpk s.c. twice weekly for 8 weeks from day 64 after semaxanib, relative to Obese ZSF1-SU/Veh. The protocol:
The effects of an ActRIIA-mFc fusion polypeptide (SEQ ID NO: 56) was examined in a rat model of left ventricular diastolic dysfunction (also referred to as HFpEF) group 2 (subgroup 2.2) pulmonary hypertension (PH). In this model, ZSF1-Lepr^faLepr^cp/Crl rats were challenged with semaxanib (SU5416) to induce HFpEF-PH.
Twenty ZSF1 Lepr^faLepr^cp/Crl male […] (8 wks old) and ten lean rats were subcutaneously administered with a single dose of semaxanib (100 mg/kg) at day 0, and ten lean rats were included as normal control. Eight weeks after semaxanib (SU5416) treatment, twenty ZSF1 Lepr^faLepr^cp/Crl rats were randomized into two groups: i) ten rats were injected subcutaneously with vehicle control (phosphate buffered saline (PBS)), twice weekly for 8 weeks starting from day 64 after semaxanib treatment, “Obese ZSF1 Veh”; and ii) ten rats were injected subcutaneously with ActRIIA-mFc at a dose of 5 mpk twice weekly for 8 weeks starting from day 64 after semaxanib treatment, “Obese ZSF1 ActRIIA-mFc.” At the end of the study, echocardiography and pressure-volume catheter were performed to measure left and right ventricular remodeling and functional changes before animals were euthanized for heart and lung collection.
Prior to euthanization, in vivo cardiac function was assessed by transthoracic echocardiography (Acuson P300, 18 MHz linear transducer: Siemens) in lightly anesthetized rats as described. Echocardiographic assessments were conducted at week 8 (before therapy with ActRIIA-mFc or vehicle) and week 15 (after therapy) in each rat. From left ventricle short axis view, M-mode echocardiogram was acquired to measure interventricular septal thickness at end diastole (IVSd), left ventricular posterior wall thickness at end diastole (LVPWd), left ventricular end diastolic diameter (LVEDD), and left ventricular end systolic diameter (LVESD). Left ventricular mass (LVM) was assessed by the equation: 1.05 [(LVEDD+LVPTD+IVSd)^3-LVEDD^3]. Early diastolic filling peak velocity (E), early diastolic mitral annular velocity (E′), and isovolumetric relaxation time (IVRT) were measured from the medial or septal wall at the mitral valve level from tissue Doppler image. LV diastolic function was assessed by measuring the E/E′ ratio and IVRT. Pulmonary arterial acceleration time (PAAT), a parameter of right ventricular function, was measured. Tricuspid annular plane systolic excursion (TAPSE), a parameter of global right ventricular function, was also measured. RV free wall thickness (RVFWT) was measured using M-mode in a modified parasternal long-axis view through the aortic valve. Pulmonary artery acceleration time (PAAT) was measured as the time from start to peak velocity of blood flow in the lumen of the main pulmonary artery distal to the pulmonary valve as obtained from the pulse-wave doppler recording.
Sixteen weeks after semaxanib treatment, rats were anesthetized with ketamine (100 mg/kg) and xylazine (5 mg/kg) at the end of the experiment to evaluate cardiac and pulmonary hemodynamics. The respiration was supported by a small animal ventilator. Thoracotomy was made through 4-5 intercostal space, and the heart was exposed. […] Ventricular pressure and volume were calculated with LabChart 7 software. […] After finishing left ventricular measurements, the catheter was advanced to the aorta, arterial blood systolic and diastolic pressure was detected. […] Similarly, right atrial pressure was measured by moving the catheter from the right ventricle into atrium. […]

Regarding “ActRIIA-mFc: ActRIIA-mFc fusion polypeptide (SEQ ID NO: 56); extracellular domain fused to murine IgG2a Fc domain with a linker”, the PAAT result (FIG. 56) is given as “significantly increased PAAT”. Also, for the setting “FIG. 57”, the “right ventricular systolic pressure (RVSP)” value was “significantly reduced right ventricular systolic pressure”. The RVWT entry (FIG. 58) was “significantly reduced elevated RVWT”. For the same substance, the TAPSE entry (FIG. 59) was “increased TAPSE”. Also, the “Fulton index (RV/(LV+S))” value (FIG. 60) is recorded as “decreased Fulton index”.

The values are drawn from patent US20240181007A1, “COMPOSITIONS AND METHODS FOR TREATING PULMONARY HYPERTENSION” (Acceleron Pharma Inc., priority 2021, published 2024).
